{"source": "patent US6348609B1", "about": "“Method for obtaining an oil that is rich in hydroxyoctadecadienoic fatty acids (HODE) or the esters thereof from a mixture containing linoleic acid or the esters thereof” (Laboratoires Arkopharma, priority 1999, dated 2002)", "key": {"human adipocytes": {"system": "human adipocytes", "assay": "production of cAMP in human adipocytes (lipolysis activation)", "type": "cell-based", "excerpt": "The aim of this study is to study the effect of 9-HODE on the production of cAMP (cyclic adenosine monophosphate) which is a lipolysis activator, in human adipocytes. The effect of 9-HODE is studied relative to that of adrenaline and caffeine which are two molecules that are known for their lipolysis-stimulating effects."}, "[1]": {"assay": "skin penetration in vitro on human skin with Franz cells", "type": "in vitro ADME", "procedure": "A study of skin penetration is carried out in vitro on human skin with Franz cells. These cells comprise a surface area of human skin of 1.76 cm^2 on which is placed 800 μg of 9-HODE. After 6 hours of contact, an assay of the 9-HODE is carried out by gas chromatography at the surface of the human skin sample, in the epidermis, in the dermis and in the receiving phase."}, "[2]": {"conditions": "9-HODE 10^−4 M, human adipocytes"}, "[3]": {"conditions": "800 μg on 1.76 cm^2 human skin, after 6 hours of contact"}}}
{"compound": "CCCCCC=CC=CC(O)CCCCCCCC(=O)O", "note": "(centres unmarked) [9-HODE, 9-hydroxy-10,12-octadecadienoic acid]", "values": [{"measurement": "concentration of cAMP, times greater than that obtained with caffeine", "setting": "human adipocytes; 9-HODE 10^−3 M, human adipocytes", "value": 10, "unit": "times"}, {"measurement": "increase in cAMP relative to adrenaline", "setting": "human adipocytes; [2]", "value": "greater than that obtained, irrespective of the concentration, by adrenaline"}, {"measurement": "increase in cAMP relative to caffeine", "setting": "human adipocytes; [2]", "value": "equivalent to that of caffeine 10^−3 M"}, {"measurement": "concentration of cAMP", "setting": "human adipocytes; 9-HODE concentration of 10^−3 M, human adipocytes", "value": "7.940 femtomol of cAMP/million adipocytes"}, {"measurement": "conclusion on lipolysis activation in vitro", "setting": "human adipocytes; in vitro, by stimulating production of cAMP by adipocytes", "value": "powerful lipolysis activator"}, {"measurement": "9-HODE assayed at the surface of the skin", "setting": "[1]; [3]", "value": 33, "unit": "%"}, {"measurement": "9-HODE assayed in the dermis", "setting": "[1]; [3]", "value": 32, "unit": "%"}, {"measurement": "9-HODE assayed in the epidermis", "setting": "[1]; [3]", "value": 11, "unit": "%"}, {"measurement": "9-HODE assayed in the receiving phase", "setting": "[1]; [3]", "value": 24, "unit": "%"}, {"measurement": "skin-penetrating power", "setting": "[1]; human skin, Franz cells", "value": "high skin-penetrating power"}]}
{"compound": "Cn1c(=O)c2c(ncn2C)n(C)c1=O", "note": "[caffeine, reference compound]", "values": [{"measurement": "concentration of cAMP", "setting": "human adipocytes; caffeine comparator, concentration not given, human adipocytes", "value": "799 femtomol of cAMP/million adipocytes"}]}
